Experimental findings from US20130040944A1, “MGLUR4 ALLOSTERIC POTENTIATORS, COMPOSITIONS, AND METHODS OF TREATING NEUROLOGICAL DYSFUNCTION” (VANDERBILT UNIVERSITY, priority 2009, published 2013) are described below.

In the assay the target is human mGluR4 (Homo sapiens, UniProt Q14833). The assay can be described thus: potentiation of human mGluR4 in transfected CHO cells, Ca2+-sensitive dye fluorescence, EC20 agonist. As to conditions: hEC50, human mGluR4 potentiation; unit inferred.
Sequence of human mGluR4 (Q14833 33-912): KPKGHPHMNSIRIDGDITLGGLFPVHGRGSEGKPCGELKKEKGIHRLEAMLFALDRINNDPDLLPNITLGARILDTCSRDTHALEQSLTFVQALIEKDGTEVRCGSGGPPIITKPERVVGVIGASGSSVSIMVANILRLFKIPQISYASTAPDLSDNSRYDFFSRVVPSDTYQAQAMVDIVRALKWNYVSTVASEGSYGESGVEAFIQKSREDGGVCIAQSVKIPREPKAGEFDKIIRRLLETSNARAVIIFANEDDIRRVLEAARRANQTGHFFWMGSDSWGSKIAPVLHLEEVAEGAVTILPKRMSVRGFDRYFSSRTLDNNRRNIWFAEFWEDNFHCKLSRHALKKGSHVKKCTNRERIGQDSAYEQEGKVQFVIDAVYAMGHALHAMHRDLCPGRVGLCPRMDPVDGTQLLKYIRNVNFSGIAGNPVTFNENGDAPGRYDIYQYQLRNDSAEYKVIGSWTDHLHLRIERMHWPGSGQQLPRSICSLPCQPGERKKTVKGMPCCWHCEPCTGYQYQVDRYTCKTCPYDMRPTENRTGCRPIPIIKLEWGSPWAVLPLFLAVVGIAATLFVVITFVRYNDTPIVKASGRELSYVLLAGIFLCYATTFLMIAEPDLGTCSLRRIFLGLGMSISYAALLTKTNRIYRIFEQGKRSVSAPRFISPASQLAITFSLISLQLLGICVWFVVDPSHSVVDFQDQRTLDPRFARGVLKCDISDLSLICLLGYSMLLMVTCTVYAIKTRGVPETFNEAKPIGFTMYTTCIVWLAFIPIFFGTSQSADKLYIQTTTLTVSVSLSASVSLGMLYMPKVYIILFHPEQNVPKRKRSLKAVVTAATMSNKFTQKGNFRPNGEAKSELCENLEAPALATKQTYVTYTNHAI

For `O=C(Nc1ccn(S(=O)(=O)c2ccc(CO)cc2)c1)c1ccccn1` [Example 161, N-(1-((4-(hydroxymethyl)phenyl)sulfonyl)-1H-pyrrol-3-yl)picolinamide], the EC50 was 1210 nM.

Turning to `O=C(Nc1ccn(S(=O)(=O)c2cccc(Cl)c2F)c1)c1ccco1` [Example 162, N-(1-((3-chloro-2-fluorophenyl)sulfonyl)-1H-pyrrol-3-yl)furan-2-carboxamide], the EC50 was found to be 2540 nM. With `O=C(Nc1ccn(S(=O)(=O)c2ccc(OC(F)F)cc2)c1)c1ccco1` [Example 163, N-(1-((4-(difluoromethoxy)phenyl)sulfonyl)-1H-pyrrol-3-yl)furan-2-carboxamide] the figure was 3240 nM. With `COc1ccc(S(=O)(=O)n2ccc(NC(=O)c3ccco3)c2)cc1` [Example 164, N-(1-((4-methoxyphenyl)sulfonyl)-1H-pyrrol-3-yl)furan-2-carboxamide] the figure was 701 nM. With `O=C(Nc1ccn(S(=O)(=O)c2ccc3c(c2)OCO3)c1)c1ccco1` [Example 166, N-(1-(benzo[d][1,3]dioxol-5-ylsulfonyl)-1H-pyrrol-3-yl)furan-2-carboxamide] the figure was 1940 nM.

Regarding `O=C(Nc1ccn(S(=O)(=O)c2ccc(Cl)cn2)c1)c1ccco1` [Example 167, N-(1-((5-chloropyridin-2-yl)sulfonyl)-1H-pyrrol-3-yl)furan-2-carboxamide], the EC50 came to 2860 nM. With `COc1ccc(S(=O)(=O)n2ccc(NC(=O)c3ccco3)c2)cn1` [Example 168, N-(1-((6-methoxypyridin-3-yl)sulfonyl)-1H-pyrrol-3-yl)furan-2-carboxamide] the figure was 2120 nM; with `O=C(Nc1ccn(S(=O)(=O)c2ccc(Cl)cc2F)c1)c1ccco1` [Example 169, N-(1-((4-chloro-2-fluorophenyl)sulfonyl)-1H-pyrrol-3-yl)furan-2-carboxamide], 4130 nM.

What is called EC50 is the concentration needed to bring the measured effect to its halfway point.
